Measured values taken from patent publication US20050131238A1, “Spermicides” (SSL International plc, priority 2001, published 2005).

Legend:
[1] = test system: human sperm; experiment: Evaluation of human sperm motility (spermicidal efficacy), manual microscopy; type: cell-based; conditions: concentration giving 50% inhibition of sperm motility vs control, motility determined within 30 s by manual microscopy, ± SEM, read-out: Inhibition Human Sperm Motility (ED50)
Excerpt: 1. Evaluation of Human Sperm Motility (Spermicidal Efficacy)
The number of motile sperm (%) is rapidly determined (within 30s) following exposure to varying concentrations of spermicide using manual microscopy. Using non-linear regression analysis motility data from these screens is used to generate concentration response curves and subsequently an ED50 value using GraphPad Prism software (San Diego, Calif., USA). The ED50 value is the concentration of spermicide which produces 50% inhibition of sperm motility compared to control.

[2] = test system: ME180 cells; experiment: Cell cytotoxicity (MTT cell viability assay); type: cell-based; conditions: Homo sapiens, ME-180, concentration giving 50% inhibition of cell viability vs control, ± SEM
Description: 2. Determination of Cell Cytotoxicity (MTT Cell Viability Assay)
The effect of compounds on vaginal cell viability is assessed using the MTT assay. MTT is a tetrazolium salt which is converted by viable cells to an insoluble […]. This colour conversion is measured by spectrophotometry. Data is then subjected to non-linear regression analysis to generate concentration response curves and subsequently an EC50 value curves using GraphPad Prism software (San Diego, Calif., USA). The EC50 value is the concentration of spermicide which produces 50% inhibition of cell viability compared to control.

[3] = test system: sperm; conditions: 10 mM CPhM solution, incubation for 10 minutes; decreased from 80%; cited from earlier work

Compound | EC50 [1] | EC50 [2] | fertilising capacity of sperm [3]
COC(=O)c1scc(C)c1N1C(=O)C=CC1=O [Compound 6] | 26 µM | 88 µM | 
O=C1C=CC(=O)N1CCN1C(=O)C=CC1=O [Compound 10] | 4 µM | 516 µM | 
O=C1C=CC(=O)N1C1CCCCC1 [Compound 5] | 294 µM | 114 µM | 
O=C1C=CC(=O)N1c1ccc2c(c1)OCCO2 [Compound 7] | 43 µM | 410 µM | 
O=C1C=CC(=O)N1c1ccc(OCCOCCOCCOCCOCCOc2ccc(N3C(=O)C=CC3=O)cc2)cc1 [Compound 13] | 4.6 µM | 125 µM | 
N#Cc1cccc(N2C(=O)C=CC2=O)c1 [Compound 9] | 56 µM | 143 µM | 
Cc1cc(N2C(=O)C=CC2=O)no1 [Compound 8] | 79 µM | 858 µM | 
O=C1C=CC(=O)N1c1ccccc1 [Compound 1] | 32 µM | 370 µM | 
O=C1C=CC(=O)N1c1ccc(-c2ccc(N3C(=O)C=CC3=O)cc2)cc1 [Compound 11] | 1.4 µM | > 30 µM | 
COCCOCCOCCOCCOc1ccc(N2C(=O)C=CC2=O)cc1 [Compound 14] | 149 µM | 285 µM | 
CCOC(=O)c1ccc(N2C(=O)C=CC2=O)cc1 [Compound 3] | 77 µM | 363 µM | 
O=C1C=CC(=O)N1c1ccc(Nc2ccccc2)cc1 [Compound 4] | 31 µM | 268 µM | 
O=C(O)c1ccc(N2C(=O)C=CC2=O)cc1O [CPhM, N-(4-carboxy-3-hydroxy-phenyl)-maleimide] |  |  | 17%
O=C1C=CC(=O)N1c1ccc(OCCOCCOCCOCCOc2ccc(N3C(=O)C=CC3=O)cc2)cc1 [Compound 15] | 5 µM | 153 µM | 
O=C1C=CC(=O)N1CCOCCOCCOCCN1C(=O)C=CC1=O [Compound 12] | 10.5 µM | 333 µM | 
